Literature values in article PMC9329312, “Decoding kinase-adverse event associations for small molecule kinase inhibitors” (Nature Communications, 2022).

Conditions: ref FAERS

For CCOc1cc2ncc(C#N)c(Nc3ccc(OCc4ccccn4)c(Cl)c3)c2cc1NC(=O)/C=C/CN(C)C [neratinib], the “Intra-abdominal fluid collection, % of Cases” value is given as 0.15%, the “Intracranial artery dissection, % of Cases” value is given as 0.075% and the “Irritability, % of Cases” value is given as 0.15%. The “Ischaemic stroke, % of Cases” value was 0.075%, the “Joint injury, % of Cases” value was 0.075% and the “Joint stiffness, % of Cases” value was 0.15%. The “Joint swelling, % of Cases” value was 0.225%, the “Kidney infection, % of Cases” value was 0.075% and the “Klebsiella infection, % of Cases” value was 0.075%. The “Labelled drug-drug interaction medication error, % of Cases” value was 0.15%, the “Laboratory test abnormal, % of Cases” value was 0.15% and the “Large intestinal haemorrhage, % of Cases” value was 0.075%. The “Large intestinal obstruction, % of Cases” value was 0.075%, the “Lethargy, % of Cases” value was 0.45% and the “Ligament sprain, % of Cases” value was 0.15%. The “Lip swelling, % of Cases” value was 0.3%, the “Liver disorder, % of Cases” value was 0.15% and the “Liver function test increased, % of Cases” value was 0.45%. For the same compound, the “Liver injury, % of Cases” value was 0.225%, the “Localised infection, % of Cases” value was 0.075% and the “Loss of consciousness, % of Cases” value was 0.3%. For the same compound, the “Lower limb fracture, % of Cases” value was 0.075%, the “Lower respiratory tract infection, % of Cases” value was 0.075% and the “Lung cancer metastatic, % of Cases” value was 0.075%. For the same compound, the “Lung disorder, % of Cases” value was 0.15%, the “Lung neoplasm malignant, % of Cases” value was 0.375% and the “Lymph node haemorrhage, % of Cases” value was 0.075%. The “Lymphocyte count decreased, % of Cases” value was 0.075%, the “Lymphoedema, % of Cases” value was 0.15% and the “Magnetic resonance imaging abnormal, % of Cases” value was 0.075%. The “Magnetic resonance imaging head abnormal, % of Cases” value was 0.075%, the “Malaise, % of Cases” value was 1.5% and the “Malignant ascites, % of Cases” value was 0.075%. The “Malignant neoplasm of unknown primary site, % of Cases” value was 0.075%, the “Malignant neoplasm progression, % of Cases” value was 0.45% and the “Malignant pleural effusion, % of Cases” value was 0.075%. The “Malnutrition, % of Cases” value was 0.15%, the “Mass, % of Cases” value was 0.15% and the “Mastectomy, % of Cases” value was 0.225%. The “Medical procedure, % of Cases” value was 0.075%, the “Memory impairment, % of Cases” value was 0.45% and the “Menopausal symptoms, % of Cases” value was 0.075%. For the same compound, the “Menstruation delayed, % of Cases” value was 0.075%, the “Mental impairment, % of Cases” value was 0.075% and the “Mesenteric artery stenosis, % of Cases” value was 0.075%. For the same compound, the “Metastases to abdominal cavity, % of Cases” value was 0.075%, the “Metastases to bone, % of Cases” value was 0.375% and the “Metastases to central nervous system, % of Cases” value was 1.6%. For the same compound, the “Metastases to liver, % of Cases” value was 0.3%, the “Metastases to lung, % of Cases” value was 0.3% and the “Metastases to lymph nodes, % of Cases” value was 0.075%. For the same compound, the “Metastases to meninges, % of Cases” value was 0.075%, the “Metastases to peritoneum, % of Cases” value was 0.075% and the “Metastases to spine, % of Cases” value was 0.075%. For the same compound, the “Metastatic neoplasm, % of Cases” value was 0.15%, the “Microcytic anaemia, % of Cases” value was 0.075% and the “Micturition urgency, % of Cases” value was 0.075%. The “Middle ear effusion, % of Cases” value was 0.075%, the “Migraine, % of Cases” value was 0.375% and the “Monocyte count increased, % of Cases” value was 0.075%. For the same compound, the “Monoplegia, % of Cases” value was 0.075%, the “Mood swings, % of Cases” value was 0.075% and the “Mouth haemorrhage, % of Cases” value was 0.075%. For the same compound, the “Mouth swelling, % of Cases” value was 0.075%, the “Mouth ulceration, % of Cases” value was 0.15% and the “Movement disorder, % of Cases” value was 0.075%. The “Muscle spasms, % of Cases” value was 4.2%, the “Muscle twitching, % of Cases” value was 0.15% and the “Muscular weakness, % of Cases” value was 0.375%. For the same compound, the “Musculoskeletal chest pain, % of Cases” value was 0.15%, the “Musculoskeletal stiffness, % of Cases” value was 0.3% and the “Myalgia, % of Cases” value was 0.9%. For the same compound, the “Myelosuppression, % of Cases” value was 0.075%, the “Myocardial infarction, % of Cases” value was 0.075% and the “Myopia, % of Cases” value was 0.075%. The “Nail discolouration, % of Cases” value was 0.225%, the “Nail disorder, % of Cases” value was 0.375% and the “Nail growth abnormal, % of Cases” value was 0.075%. For the same compound, the “Nasal congestion, % of Cases” value was 0.45%, the “Nasal dryness, % of Cases” value was 0.3% and the “Nasal ulcer, % of Cases” value was 0.075%. The “Nasopharyngitis, % of Cases” value was 1.4%, the “Nausea, % of Cases” value was 29.7% and the “Neck pain, % of Cases” value was 0.15%. The “Negative thoughts, % of Cases” value was 0.15%, the “Neoplasm malignant, % of Cases” value was 0.075% and the “Neoplasm progression, % of Cases” value was 0.45%. For the same compound, the “Nephrolithiasis, % of Cases” value was 0.15%, the “Nervous system disorder, % of Cases” value was 0.15% and the “Nervousness, % of Cases” value was 0.075%. For the same compound, the “Neuralgia, % of Cases” value was 0.075%, the “Neuropathy peripheral, % of Cases” value was 1.1% and the “Neutropenia, % of Cases” value was 0.375%. The “Neutrophil count increased, % of Cases” value was 0.075%, the “Night sweats, % of Cases” value was 0.15% and the “Nightmare, % of Cases” value was 0.075%. The “Ocular hyperaemia, % of Cases” value was 0.15%, the “Oedema peripheral, % of Cases” value was 0.075% and the “Oesophageal pain, % of Cases” value was 0.075%. The “Off label use, % of Cases” value was 11.6%, the “Onychalgia, % of Cases” value was 0.075% and the “Onychoclasis, % of Cases” value was 0.8%. For the same compound, the “Onycholysis, % of Cases” value was 0.15%, the “Onychomycosis, % of Cases” value was 0.075% and the “Oral discomfort, % of Cases” value was 0.3%. The “Oral herpes, % of Cases” value was 0.075%, the “Oral mucosal blistering, % of Cases” value was 0.225% and the “Oral pain, % of Cases” value was 0.3%. For the same compound, the “Oropharyngeal pain, % of Cases” value was 1.1%, the “Orthostatic hypotension, % of Cases” value was 0.075% and the “Osteoarthritis, % of Cases” value was 0.15%. The “Osteonecrosis of jaw, % of Cases” value was 0.075%, the “Oxygen saturation decreased, % of Cases” value was 0.075% and the “Oxygen saturation increased, % of Cases” value was 0.075%. For the same compound, the “PIK3CA-activated mutation, % of Cases” value was 0.075%, the “Pain in extremity, % of Cases” value was 0.9% and the “Pain, % of Cases” value was 1.4%. For the same compound, the “Palmar-plantar erythrodysaesthesia syndrome, % of Cases” value was 0.3%, the “Palpitations, % of Cases” value was 0.15% and the “Pancreatic carcinoma, % of Cases” value was 0.075%. The “Pancreatic mass, % of Cases” value was 0.075%, the “Pancreatitis acute, % of Cases” value was 0.225% and the “Pancreatitis, % of Cases” value was 0.5%. The “Panic attack, % of Cases” value was 0.075%, the “Papilloedema, % of Cases” value was 0.075% and the “Papule, % of Cases” value was 0.075%. For the same compound, the “Paraesthesia oral, % of Cases” value was 0.075%, the “Paraesthesia, % of Cases” value was 0.45% and the “Paranasal sinus hypersecretion, % of Cases” value was 0.075%. For the same compound, the “Paranasal sinus hyposecretion, % of Cases” value was 0.075%, the “Paronychia, % of Cases” value was 0.15% and the “Pericardial effusion, % of Cases” value was 0.075%. For the same compound, the “Periorbital swelling, % of Cases” value was 0.075%, the “Peripheral swelling, % of Cases” value was 0.75% and the “Pharyngitis, % of Cases” value was 0.075%. The “Photopsia, % of Cases” value was 0.075%, the “Photosensitivity reaction, % of Cases” value was 0.075% and the “Physical deconditioning, % of Cases” value was 0.075%. For the same compound, the “Physical disability, % of Cases” value was 0.075%, the “Platelet count decreased, % of Cases” value was 0.225% and the “Platelet count increased, % of Cases” value was 0.075%. The “Pleural effusion, % of Cases” value was 0.225%, the “Pneumonia, % of Cases” value was 1.1% and the “Pneumonitis, % of Cases” value was 0.075%. The “Pollakiuria, % of Cases” value was 0.375%, the “Poor quality sleep, % of Cases” value was 0.075% and the “Post procedural bile leak, % of Cases” value was 0.075%. For the same compound, the “Post procedural infection, % of Cases” value was 0.075%, the “Post procedural swelling, % of Cases” value was 0.075% and the “Postoperative wound infection, % of Cases” value was 0.15%. The “Prescribed overdose, % of Cases” value was 0.075%, the “Prescribed underdose, % of Cases” value was 1.3% and the “Presyncope, % of Cases” value was 0.075%. For the same compound, the “Procedural pain, % of Cases” value was 0.075%, the “Proctalgia, % of Cases” value was 0.075% and the “Product administered to patient of inappropriate age, % of Cases” value was 0.075%. For the same compound, the “Product administration error, % of Cases” value was 0.9%, the “Product dose omission in error, % of Cases” value was 0.075% and the “Product dose omission issue, % of Cases” value was 7.8%. For the same compound, the “Product identification number issue, % of Cases” value was 0.075%, the “Product name confusion, % of Cases” value was 0.075% and the “Product packaging quantity issue, % of Cases” value was 0.075%. For the same compound, the “Product physical issue, % of Cases” value was 0.15%, the “Product prescribing error, % of Cases” value was 0.075% and the “Product use in unapproved indication, % of Cases” value was 0.15%. For the same compound, the “Product use issue, % of Cases” value was 0.15%, the “Productive cough, % of Cases” value was 0.225% and the “Prosthesis implantation, % of Cases” value was 0.075%. The “Pruritus, % of Cases” value was 1.2%, the “Pulmonary embolism, % of Cases” value was 0.075% and the “Pulmonary hypertension, % of Cases” value was 0.075%. For the same compound, the “Pulmonary oedema, % of Cases” value was 0.15% and the “Pulmonary pain, % of Cases” value was 0.075%.
